# Laboratory results published in patent publication US10710978B2, “STK4 inhibitors for treatment of hematologic malignancies” (Dana-Farber Cancer Institute, Inc., priority 2015, dated 2020).
# Where two headings read alike, the source gives them in different places.
# Experiments:
# Test in all cases: KiNativ assay
# Assay type in all cases: binding
# Settings in all cases: H929 live cell
# CDC2 = CDC2 (Homo sapiens (Human), UniProt P06493)
# Experimental: (§1) Biochemical IC50s of the compounds of the present disclosure against various kinases were measured in a KiNativ assay. Compounds were screened in duplicate at 10 μM in H929 live cell. IC50 was measured via Mass spectroscopy (MS).
# NEK6, NEK7 = tested on: NEK6, NEK7
# Experimental: as §1
# PIK3CG = PIK3CG (Homo sapiens (Human), UniProt P48736)
# Experimental: as §1
# MST2 = MST2 (Homo sapiens (Human), UniProt Q13188)
# Experimental: as §1
# JAK1 domain1 = JAK1 domain1 (Homo sapiens (Human), UniProt P23458)
# Experimental: as §1
# CK1g3 = CK1g3 (Homo sapiens (Human), UniProt Q9Y6M4)
# Experimental: as §1
# STLK5 = STLK5 (Homo sapiens (Human), UniProt Q7RTN6)
# Experimental: as §1
# DGKH = DGKH (Homo sapiens (Human), UniProt Q86XP1)
# Experimental: as §1
# IKKa = IKKa (Homo sapiens (Human), UniProt O15111)
# Experimental: as §1
# FRAP = FRAP (Homo sapiens (Human), UniProt P42345)
# Experimental: as §1
# ULK1 = ULK1 (Homo sapiens (Human), UniProt O75385)
# Experimental: as §1
# NEK4 = NEK4 (Homo sapiens (Human), UniProt P51957)
# Experimental: as §1
# MAP3K5 = MAP3K5 (Homo sapiens (Human), UniProt Q99683)
# Experimental: as §1
# CaMK2g = CaMK2g (Homo sapiens (Human), UniProt Q13555)
# Experimental: as §1
# OSR1 = OSR1 (Homo sapiens (Human), UniProt O95747)
# Experimental: as §1
# [1] = tested on: ZC1/HGK, ZC2/TNIK, ZC3/MINK
# Experimental: as §1
# CaMKK2 = CaMKK2 (Homo sapiens (Human), UniProt Q96RR4)
# Experimental: as §1
# PKR = PKR (Homo sapiens (Human), UniProt P19525)
# Experimental: as §1
# LATS1 = LATS1 (Homo sapiens (Human), UniProt O95835)
# Experimental: as §1
# MPSK1 = MPSK1 (Homo sapiens (Human), UniProt O75716)
# Experimental: as §1
# IRAK4 = IRAK4 (Homo sapiens (Human), UniProt Q9NWZ3)
# Experimental: as §1
# KHS1 = KHS1 (Homo sapiens (Human), UniProt Q9Y4K4)
# Experimental: as §1
# GSK3B = GSK3B (Homo sapiens (Human), UniProt P49841)
# Experimental: as §1
# ACK = ACK (Homo sapiens (Human), UniProt Q07912)
# Experimental: as §1
# MAP2K5 = MAP2K5 (Homo sapiens (Human), UniProt Q13163)
# Experimental: as §1
# LYN = LYN (Homo sapiens (Human), UniProt P07948)
# Experimental: as §1
# STLK3 = STLK3 (Homo sapiens (Human), UniProt Q9UEW8)
# Experimental: as §1
# PKCi = PKCi (Homo sapiens (Human), UniProt P41743)
# Experimental: as §1
# PFTAIRE1 = PFTAIRE1 (Homo sapiens (Human), UniProt O94921)
# Experimental: as §1
# CDK5 = CDK5 (Homo sapiens (Human), UniProt Q00535)
# Experimental: as §1
# MST4, YSK1 = tested on: MST4, YSK1
# Experimental: as §1
# JNK1, JNK2, JNK3 = tested on: JNK1, JNK2, JNK3
# Experimental: as §1
# SGK3 = SGK3 (Homo sapiens (Human), UniProt Q96BR1)
# Experimental: as §1
# Chain of CDK5 (Q00535 whole entry): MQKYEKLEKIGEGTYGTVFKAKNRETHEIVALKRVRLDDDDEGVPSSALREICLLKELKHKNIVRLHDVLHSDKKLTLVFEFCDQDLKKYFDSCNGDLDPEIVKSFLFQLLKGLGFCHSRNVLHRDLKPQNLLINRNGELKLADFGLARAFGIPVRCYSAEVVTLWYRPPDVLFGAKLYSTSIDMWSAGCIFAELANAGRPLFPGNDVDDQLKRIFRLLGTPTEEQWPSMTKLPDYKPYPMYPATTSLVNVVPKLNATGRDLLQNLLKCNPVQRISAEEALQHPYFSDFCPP
# Chain of ULK1 (O75385 whole entry): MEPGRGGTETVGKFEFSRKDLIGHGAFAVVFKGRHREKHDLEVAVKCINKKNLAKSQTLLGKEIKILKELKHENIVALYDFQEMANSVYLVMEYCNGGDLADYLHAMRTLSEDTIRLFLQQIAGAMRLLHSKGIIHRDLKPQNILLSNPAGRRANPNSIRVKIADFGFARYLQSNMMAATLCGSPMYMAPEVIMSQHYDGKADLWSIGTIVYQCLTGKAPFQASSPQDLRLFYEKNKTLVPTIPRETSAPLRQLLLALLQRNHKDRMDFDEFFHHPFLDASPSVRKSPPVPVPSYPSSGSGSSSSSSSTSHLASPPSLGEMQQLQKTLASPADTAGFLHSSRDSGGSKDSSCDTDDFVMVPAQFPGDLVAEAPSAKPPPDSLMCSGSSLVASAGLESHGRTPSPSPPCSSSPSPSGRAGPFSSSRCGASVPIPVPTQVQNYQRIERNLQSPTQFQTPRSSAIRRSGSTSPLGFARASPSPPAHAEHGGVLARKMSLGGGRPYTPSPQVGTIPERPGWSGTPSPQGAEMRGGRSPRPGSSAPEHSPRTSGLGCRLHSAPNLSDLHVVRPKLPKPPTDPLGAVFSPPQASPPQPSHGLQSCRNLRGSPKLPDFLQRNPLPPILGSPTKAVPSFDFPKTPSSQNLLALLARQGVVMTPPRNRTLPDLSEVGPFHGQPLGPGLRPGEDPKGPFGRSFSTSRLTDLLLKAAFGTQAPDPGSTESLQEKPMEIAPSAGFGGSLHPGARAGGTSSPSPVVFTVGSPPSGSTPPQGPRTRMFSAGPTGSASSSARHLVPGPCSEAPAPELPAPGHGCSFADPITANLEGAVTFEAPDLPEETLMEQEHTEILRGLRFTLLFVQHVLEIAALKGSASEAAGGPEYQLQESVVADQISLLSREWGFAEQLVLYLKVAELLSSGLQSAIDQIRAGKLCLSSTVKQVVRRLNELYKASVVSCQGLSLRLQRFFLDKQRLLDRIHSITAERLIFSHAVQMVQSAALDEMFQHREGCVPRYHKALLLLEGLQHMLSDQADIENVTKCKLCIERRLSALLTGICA
# Chain of MPSK1 (O75716 whole entry): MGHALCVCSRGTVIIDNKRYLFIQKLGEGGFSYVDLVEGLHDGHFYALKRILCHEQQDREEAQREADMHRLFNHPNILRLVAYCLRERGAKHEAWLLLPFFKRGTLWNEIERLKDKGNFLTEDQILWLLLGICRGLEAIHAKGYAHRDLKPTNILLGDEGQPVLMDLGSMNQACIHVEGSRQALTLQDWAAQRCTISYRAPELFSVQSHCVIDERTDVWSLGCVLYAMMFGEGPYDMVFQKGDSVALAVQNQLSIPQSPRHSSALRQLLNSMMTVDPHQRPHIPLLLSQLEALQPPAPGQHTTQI
# Chain of OSR1 (O95747 whole entry): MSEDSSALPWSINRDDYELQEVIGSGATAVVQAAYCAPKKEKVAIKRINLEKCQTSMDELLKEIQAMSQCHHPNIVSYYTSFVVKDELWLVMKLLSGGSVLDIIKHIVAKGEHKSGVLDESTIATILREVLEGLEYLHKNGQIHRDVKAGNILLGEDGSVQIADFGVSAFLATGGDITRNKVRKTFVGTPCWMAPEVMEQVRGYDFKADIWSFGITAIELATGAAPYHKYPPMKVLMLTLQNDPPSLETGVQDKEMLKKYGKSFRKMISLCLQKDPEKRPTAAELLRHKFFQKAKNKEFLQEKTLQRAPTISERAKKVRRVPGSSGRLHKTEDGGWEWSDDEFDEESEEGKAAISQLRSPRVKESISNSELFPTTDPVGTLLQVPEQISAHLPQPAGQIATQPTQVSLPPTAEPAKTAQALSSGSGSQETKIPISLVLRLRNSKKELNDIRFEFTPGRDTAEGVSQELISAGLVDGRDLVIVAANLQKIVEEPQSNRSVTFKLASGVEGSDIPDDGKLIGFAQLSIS
# Chain of LYN (P07948 whole entry): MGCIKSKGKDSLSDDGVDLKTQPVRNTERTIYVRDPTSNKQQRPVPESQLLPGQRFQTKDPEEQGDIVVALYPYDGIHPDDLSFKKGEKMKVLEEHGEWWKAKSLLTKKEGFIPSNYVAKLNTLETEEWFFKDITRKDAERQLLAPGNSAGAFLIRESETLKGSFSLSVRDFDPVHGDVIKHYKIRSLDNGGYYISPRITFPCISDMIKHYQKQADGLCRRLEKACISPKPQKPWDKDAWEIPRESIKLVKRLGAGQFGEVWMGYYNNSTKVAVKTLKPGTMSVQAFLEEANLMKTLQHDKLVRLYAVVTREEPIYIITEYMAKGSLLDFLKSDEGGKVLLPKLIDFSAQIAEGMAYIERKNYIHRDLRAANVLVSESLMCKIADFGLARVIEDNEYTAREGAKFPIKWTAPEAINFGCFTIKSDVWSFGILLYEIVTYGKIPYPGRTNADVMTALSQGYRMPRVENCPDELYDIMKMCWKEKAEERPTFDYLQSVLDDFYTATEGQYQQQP
# Chain of PKCi (P41743 whole entry): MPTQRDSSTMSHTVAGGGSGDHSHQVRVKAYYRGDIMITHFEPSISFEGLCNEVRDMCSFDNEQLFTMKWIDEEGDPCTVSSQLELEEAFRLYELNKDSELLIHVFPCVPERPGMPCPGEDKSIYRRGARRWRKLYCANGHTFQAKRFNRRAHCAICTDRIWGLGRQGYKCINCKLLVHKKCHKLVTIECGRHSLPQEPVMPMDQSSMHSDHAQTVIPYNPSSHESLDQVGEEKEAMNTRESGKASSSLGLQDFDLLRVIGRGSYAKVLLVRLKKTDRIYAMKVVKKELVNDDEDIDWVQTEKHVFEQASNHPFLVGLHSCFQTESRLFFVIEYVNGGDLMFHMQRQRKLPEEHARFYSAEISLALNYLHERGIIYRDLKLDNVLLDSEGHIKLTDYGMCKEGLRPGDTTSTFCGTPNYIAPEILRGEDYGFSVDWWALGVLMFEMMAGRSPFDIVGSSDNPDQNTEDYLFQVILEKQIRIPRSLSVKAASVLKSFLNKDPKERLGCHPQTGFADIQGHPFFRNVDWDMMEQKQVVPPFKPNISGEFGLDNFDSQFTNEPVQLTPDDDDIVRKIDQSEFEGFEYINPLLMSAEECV
# Chain of MAP2K5 (Q13163 whole entry): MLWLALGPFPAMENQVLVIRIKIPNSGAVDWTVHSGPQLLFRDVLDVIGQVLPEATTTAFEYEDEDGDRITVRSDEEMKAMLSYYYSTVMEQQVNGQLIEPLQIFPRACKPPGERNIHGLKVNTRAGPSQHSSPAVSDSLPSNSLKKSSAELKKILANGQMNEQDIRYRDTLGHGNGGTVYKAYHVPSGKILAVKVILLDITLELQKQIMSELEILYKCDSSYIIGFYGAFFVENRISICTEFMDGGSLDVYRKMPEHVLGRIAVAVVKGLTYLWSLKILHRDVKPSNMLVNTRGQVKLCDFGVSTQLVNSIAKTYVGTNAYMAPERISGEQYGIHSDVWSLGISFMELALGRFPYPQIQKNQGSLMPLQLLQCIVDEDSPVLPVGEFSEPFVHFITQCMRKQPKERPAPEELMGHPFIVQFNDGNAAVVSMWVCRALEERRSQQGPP
# Chain of CaMKK2 (Q96RR4 whole entry): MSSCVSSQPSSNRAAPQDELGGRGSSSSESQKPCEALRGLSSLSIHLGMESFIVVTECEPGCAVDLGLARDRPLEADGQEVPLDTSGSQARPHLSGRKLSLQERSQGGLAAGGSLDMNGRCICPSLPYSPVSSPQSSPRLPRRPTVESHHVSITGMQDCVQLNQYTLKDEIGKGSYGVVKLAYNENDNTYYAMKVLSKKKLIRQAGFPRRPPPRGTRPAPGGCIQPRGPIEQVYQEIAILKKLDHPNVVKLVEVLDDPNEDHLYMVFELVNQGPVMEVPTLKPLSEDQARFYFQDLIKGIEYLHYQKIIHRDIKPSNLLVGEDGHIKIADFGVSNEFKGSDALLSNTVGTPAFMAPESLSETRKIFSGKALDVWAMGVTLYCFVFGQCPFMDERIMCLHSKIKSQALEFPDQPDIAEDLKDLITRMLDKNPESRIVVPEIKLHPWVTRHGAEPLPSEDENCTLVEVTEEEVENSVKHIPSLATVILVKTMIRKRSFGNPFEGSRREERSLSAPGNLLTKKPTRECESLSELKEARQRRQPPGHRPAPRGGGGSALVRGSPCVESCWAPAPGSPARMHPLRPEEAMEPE
# Chain of STLK5 (Q7RTN6 whole entry): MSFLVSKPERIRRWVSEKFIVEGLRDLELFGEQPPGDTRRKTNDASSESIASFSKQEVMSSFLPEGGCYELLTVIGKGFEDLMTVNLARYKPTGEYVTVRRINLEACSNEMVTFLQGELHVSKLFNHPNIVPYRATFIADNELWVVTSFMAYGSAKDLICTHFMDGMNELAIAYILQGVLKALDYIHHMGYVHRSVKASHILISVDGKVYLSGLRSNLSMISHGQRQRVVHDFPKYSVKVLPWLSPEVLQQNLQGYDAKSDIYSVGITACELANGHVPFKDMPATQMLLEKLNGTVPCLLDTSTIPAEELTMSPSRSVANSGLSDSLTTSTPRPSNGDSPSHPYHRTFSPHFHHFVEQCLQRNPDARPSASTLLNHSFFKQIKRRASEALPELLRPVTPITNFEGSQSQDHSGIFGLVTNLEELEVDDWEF
compound,measurement,setting,value
"Nc1ncc(-c2cccc3ncsc23)cc1-c1ccc2c(c1)CCNC2=O [Compound I-13, 6-(2-amino-5-(benzo[d]thiazol-7-yl)pyridin-3-yl)-3,4-dihydroisoquinolin-1(2H)-one]",inhibition at 10 µM,CDC2; read-out: % inhibition (range),0%
same,inhibition at 10 µM,CDC2; read-out: inhibition (10 μM),-15%
same,% inhibition (range),"NEK6, NEK7; 10 μM",0.0%
same,inhibition (10 μM),"NEK6, NEK7",−20.1%
same,inhibition at 10 µM,PIK3CG; read-out: % inhibition (range),0%
same,inhibition at 10 µM,PIK3CG; read-out: inhibition (10 μM),12.4%
same,inhibition at 10 µM,MST2; read-out: % inhibition (range),75 to 90%
same,inhibition at 10 µM,MST2; read-out: inhibition (10 μM),85.5%
same,inhibition at 10 µM,JAK1 domain1; read-out: % inhibition (range),0%
same,inhibition at 10 µM,JAK1 domain1; read-out: inhibition (10 μM),-22.4%
same,inhibition at 10 µM,CK1g3; read-out: % inhibition (range),> 90%
same,inhibition at 10 µM,CK1g3; read-out: inhibition (10 μM),90.4%
same,inhibition at 10 µM,STLK5; read-out: % inhibition (range),0%
same,inhibition at 10 µM,STLK5; read-out: inhibition (10 μM),9.9%
same,inhibition at 10 µM,DGKH; read-out: % inhibition (range),0%
same,inhibition at 10 µM,DGKH; read-out: inhibition (10 μM),25.7%
same,inhibition at 10 µM,IKKa; read-out: % inhibition (range),0%
same,inhibition at 10 µM,IKKa; read-out: inhibition (10 μM),2.6%
same,inhibition at 10 µM,FRAP; read-out: % inhibition (range),0%
same,inhibition at 10 µM,FRAP; read-out: inhibition (10 μM),32.5%
same,inhibition at 10 µM,ULK1; read-out: % inhibition (range),0%
same,inhibition at 10 µM,ULK1; read-out: inhibition (10 μM),-23.4%
same,inhibition at 10 µM,NEK4; read-out: % inhibition (range),0%
same,inhibition at 10 µM,NEK4; read-out: inhibition (10 μM),4.7%
same,inhibition at 10 µM,MAP3K5; read-out: % inhibition (range),0%
same,inhibition at 10 µM,MAP3K5; read-out: inhibition (10 μM),25.6%
same,inhibition at 10 µM,CaMK2g; read-out: % inhibition (range),0%
same,inhibition at 10 µM,CaMK2g; read-out: inhibition (10 μM),-13.6%
same,inhibition at 10 µM,OSR1; read-out: % inhibition (range),0%
same,inhibition at 10 µM,OSR1; read-out: inhibition (10 μM),1.4%
same,% inhibition (range),[1]; 10 μM,>90%
same,inhibition (10 μM),[1],97.0%
same,inhibition at 10 µM,CaMKK2; read-out: % inhibition (range),50 to 75%
same,inhibition at 10 µM,CaMKK2; read-out: inhibition (10 μM),74.9%
same,inhibition at 10 µM,PKR; read-out: % inhibition (range),0%
same,inhibition at 10 µM,PKR; read-out: inhibition (10 μM),-21.7%
same,inhibition at 10 µM,LATS1; read-out: % inhibition (range),0%
same,inhibition at 10 µM,LATS1; read-out: inhibition (10 μM),14.7%
same,inhibition at 10 µM,MPSK1; read-out: % inhibition (range),0%
same,inhibition at 10 µM,MPSK1; read-out: inhibition (10 μM),-28.8%
same,inhibition at 10 µM,IRAK4; read-out: % inhibition (range),0%
same,inhibition at 10 µM,IRAK4; read-out: inhibition (10 μM),-6.4%
same,inhibition at 10 µM,KHS1; read-out: % inhibition (range),35 to 50%
same,inhibition at 10 µM,KHS1; read-out: inhibition (10 μM),47.7%
same,inhibition at 10 µM,GSK3B; read-out: % inhibition (range),75 to 90%
same,inhibition at 10 µM,GSK3B; read-out: inhibition (10 μM),88.4%
same,inhibition at 10 µM,ACK; read-out: % inhibition (range),0%
same,inhibition at 10 µM,ACK; read-out: inhibition (10 μM),23.3%
same,inhibition at 10 µM,MAP2K5; read-out: % inhibition (range),0%
same,inhibition at 10 µM,MAP2K5; read-out: inhibition (10 μM),13.4%
same,inhibition at 10 µM,LYN; read-out: % inhibition (range),0%
same,inhibition at 10 µM,LYN; read-out: inhibition (10 μM),-41.4%
same,inhibition at 10 µM,STLK3; read-out: % inhibition (range),0%
same,inhibition at 10 µM,STLK3; read-out: inhibition (10 μM),1.1%
same,inhibition at 10 µM,PKCi; read-out: % inhibition (range),0%
same,inhibition at 10 µM,PKCi; read-out: inhibition (10 μM),21.4%
same,inhibition at 10 µM,PFTAIRE1; read-out: % inhibition (range),35 to 50%
same,inhibition at 10 µM,PFTAIRE1; read-out: inhibition (10 μM),49.2%
same,inhibition at 10 µM,CDK5; read-out: % inhibition (range),0%
same,inhibition at 10 µM,CDK5; read-out: inhibition (10 μM),20%
same,% inhibition (range),"MST4, YSK1; 10 μM",0.0%
same,inhibition (10 μM),"MST4, YSK1",−17.0%
same,% inhibition (range),"JNK1, JNK2, JNK3; 10 μM",0.0%
same,inhibition (10 μM),"JNK1, JNK2, JNK3",6.0%
same,inhibition at 10 µM,SGK3; read-out: % inhibition (range),0%
same,inhibition at 10 µM,SGK3; read-out: inhibition (10 μM),13.1%
